Experimental data from publication PMC3089604 (PLoS ONE, 2011).
Like-named read-outs stand apart in the source and are kept apart here.

What was measured:
[1] = molecular target: T1, recombinant human DYRK1A (Homo sapiens, UniProt Q13627); assay: In vitro kinase assay: DYRK1A catalyzed direct phosphorylation of recombinant tau on serine 396 (western); assay type: biochemical; conditions: for IC50: recombinant DYRK1A + 4R2N tau, 1 mM ATP
T1 construct: purchased Invitrogen

[2] = tested on: tau phosphorylation in 4R0N tau overexpressing H4 neuroglioma cells; assay: Cell culture tau assay: western for total and phosphorylated tau after 96 h compound treatment; assay type: cell-based; conditions: for 12E8 % Control pTau/Total / pS396 % Control pTau/Total / pT231 % Control pTau/Total: normalized to total tau
Description: 4R0N tau overexpressing H4 neuroglioma cells were maintained in Dulbecco's Modified Eagle Medium (Invitrogen) supplemented with 10% fetal bovine serum (Invitrogen), 1% penicillin-streptomycin, geneticin (0.25 mg/ml), and 2 mM L-Glutamine (Invitrogen). Cells were maintained by splitting 1∶10 at 90% confluency. Prior to any experimentation, cells were 70–75% confluent to ensure cells were in their active growth phase. To test effects of DYRK1A knockdown on tau phosphorylation, cells were transfected with DYRK1A siRNA. Prior to treating cells with DYRK1A siRNA, siRNA was first complexed with siLentfect lipid transfection reagent (Bio-Rad) and reduced serum medium (Invitrogen) using a 6 well plate format. The final effective siRNA molarity used was 22.85 nM per well. Cells were grown for 96 hours at 37°C, 5% CO2. Cell lysates were prepared using the Complete Lysis-M, EDTA-free kit (Roche Applied Science) and total protein concentration was quantified using the BCA protein assay (Pierce). Westerns for the multiple forms of tau were performed as described below.
For all cell-based experiments, including siRNA treatments and compound treatments, cells were treated for 96 hours at 37°C, with 5% CO2. Cell lysates were then prepared using the Complete Lysis-M, EDTA-free kit (Roche Applied Science) supplemented with phosphatase inhibitor cocktails 1 and 2 (Sigma). Lysates were quantified using the BCA protein assay (Pierce). Protein from lysates (30 µg total protein per lane) was separated on SDS-PAGE gels and transferred to nitrocellulose membrane. Membranes were blocked in 5% blocking solution for one hour at room temperature (RT). Blocking buffer solution used for detection of non phosphorylated protein contained 5% Non-fat dry milk in 1×-TBS-T (50 mM Tris-HCl pH 7.4, 137 mM […], 2.7 mM KCl, 0.1% Tween). For detection of phosphorylated protein, blocking buffer solution contained 5% Bovine Serum Albumin in 1× TBS-T. Membranes were probed with primary antibody (various dilutions depending on the epitope – see below) in blocking buffer overnight at 4°C on a rocker. Membranes were subsequently washed with 1× TBS-T and probed with secondary antibody in blocking buffer for forty-five minutes using a 1∶25,000 dilution of HRP-GAM or HRP-GAR (Jackson Immunoresearch), depending on the species (mouse or rabbit) in which the primary antibodies were raised. Following incubation with secondary antibody, membranes were washed in 1× TBS-T and developed with Super Signal West Femto Maximum Sensitivity Substrate Kit ([…]) and digitally imaged. Protein band signal saturation was assessed before any further analysis of multiple forms of tau. Alpha Innotech Fluoro Chem SF imaging software verifies degrees of saturation when signal intensity is beyond the dynamic range (which is from 0–65,535). Protein band signal intensities used for quantification were within the instrument's dynamic range.
To test multiple primary antibodies, membranes were stripped for 15 minutes at RT using ReBlot Plus Mild Antibody Stripping Solution (Millipore). Membranes were then washed for 5 minutes in 1× TBS-T and blocked for one hour in 5% blocking solution at RT. For verification of protein loading, membranes were reprobed overnight at 4°C with an anti-Tubulin primary antibody (1∶1000 dilution; Cell Signaling). Primary antibodies used for detection included anti-tau (1∶2000 dilution; Dako), 12E8 tau (1∶7500 dilution; Peter Seubert, Elan Pharmaceuticals), pT231 tau (1∶1000 dilution; Abcam), pS396 tau (1∶5000 dilution; Abcam), and anti-DYRK1A (1∶500 dilution; Santa Cruz).
Cells undergoing any treatment, including β-carboline derivative dosing and siRNA treatment, were maintained in Dulbecco's Modified Eagle Medium (Invitrogen) supplemented with 10% fetal bovine serum (Invitrogen) and 2 mM L-Glutamine (Invitrogen). Viability assays were performed using a 96-well pate format. […]

[3] = alamar Blue viability (toxicity) assay; assay type: cell-based; conditions: human; H4 neuroglioma cells, drug renewed every 24 h for four days; read-out: IC50 for viability (concentration resulting in 50% cell viability)
Description: Cells undergoing any treatment, including β-carboline derivative dosing and siRNA treatment, were maintained in Dulbecco's Modified Eagle Medium (Invitrogen) supplemented with 10% fetal bovine serum (Invitrogen) and 2 mM L-Glutamine (Invitrogen). Viability assays were performed using a 96-well pate format. Metabolic activity was measured 12 hours after the addition of 10% alamar Blue (Invitrogen) directly to attached cells in full medium. This assay was based on the ability of metabolically active cells to convert alamar Blue reagent into a fluorescent signal proportional to innate metabolic activity. Once the ideal IC50 value for viability was identified, effects on multiple forms of tau were investigated after treating with the β-carbolines indicated in Table S1 using the larger 6 well plate format. For both the viability assay and cell culture tau assays, cell culture media was removed and cells were treated with freshly made drug in new media every 24 hours for four days. For cell culture tau assays, protein lysates were prepared after 96 hours of treatment. All compounds were solubilized in dimethylsulfoxide (DMSO), diluted in growth medium to their respective 0.01 µM, 0.1 µM, 1 µM and 10 µM final working dilutions and added directly to cultured cells. The final DMSO percentage in culture for all compounds and concentrations tested was 0.1%. […]

[4] = tested on: DYRK1A; design: method as in PMID 17850214; conditions: synthetic peptide substrate; read-out: IC50 against DYRK1A; cited from earlier work
[5] = tested on: MAO-A; design: method as in PMID 18980841; conditions: read-out: IC50 against MAO-A; cited from earlier work
[6] = read-out: IC50 for inhibition of DYRK1A dependent tau phosphorylation at serine 396
[7] = 30 min 30C, read-out: IC50 for inhibition of DYRK1A dependent tau phosphorylation at serine 396 (pS396)

CCn1c2cc(OC)ccc2c2ccnc(C)c21 [9-ethylharmine]
Reduction of IC50 relative to harmine ([1]; pS396 in vitro phosphorylation, ethyl group on N-9 vs harmine): ~2 fold
IC50 [1, 6]: 0.4 µM
Concentration at which tau levels were significantly reduced (p<0.05) ([2]; H4-tau cells, 96 h): 1 µM

COc1ccc2c3c([nH]c2c1)C(C)=NCC3 [Harmaline, harmaline]
IC50 [1, 7]: 9 µM

Cc1nccc2c1[nH]c1ccccc12 [Harmane, harmane]
IC50 [1, 7]: 15 µM

COc1ccc2c(c1)[nH]c1c(C)nccc12 [Harmine]
IC50 at 4 days [3]: 12 µM
12E8 (pS262/pS356) tau % Control ([2]; 8 µM, 96 h, H4-tau cells): 32 ± 7 % Control
Total Tau % Control ([2]; 8 µM, 96 h, H4-tau cells): 55 ± 9 % Control
pS396 tau % Control ([2]; 8 µM, 96 h, H4-tau cells): 49 ± 8 % Control
pT231 tau % Control ([2]; 8 µM, 96 h, H4-tau cells): 24 ± 6 % Control
12E8 % Control pTau/Total ([2]; 8 µM, 96 h): 58 ± 6 % Control
pS396 % Control pTau/Total ([2]; 8 µM, 96 h): 89 ± 7 % Control
pT231 % Control pTau/Total ([2]; 8 µM, 96 h): 44 ± 5 % Control
12E8 % Control pTau/Total ([2]; 8 µM, 96 h, listed as harmine): 58 % Control
pT231 % Control pTau/Total ([2]; 8 µM, 96 h, listed as harmine): 44 % Control

Cc1[nH]ccc2c1[nH]c1cc(=O)ccc12 [Harmol, harmol]
IC50 [1, 6]: 0.09 µM

O=C(NCCN1CCOCC1)c1ccc(Cl)cc1 [Moclobemide]
12E8 (pS262/pS356) tau % Control ([2]; 500 µM (highest concentration), 96 h): 116 ± 10 % Control
Total Tau % Control ([2]; 500 µM, 96 h): 103 ± 7 % Control
pS396 tau % Control ([2]; 500 µM, 96 h): 98 ± 9 % Control
pT231 tau % Control ([2]; 500 µM, 96 h): 118 ± 13 % Control
12E8 % Control pTau/Total ([2]; 500 µM): 112 ± 8 % Control
pS396 % Control pTau/Total ([2]; 500 µM): 95 ± 9 % Control
pT231 % Control pTau/Total ([2]; 500 µM): 114 ± 12 % Control
Effect on levels of total tau or specific phosphorylated forms of tau ([2]; doses up to 500 µM): did not reduce
IC50 [5]: 3.9 µM

c1ccc2c(c1)[nH]c1cnccc12 [Norharmane, norharmane]
IC50 [1, 7]: 45 µM
